# Measurements as given in paper PMC10638516 (Acta Pharmaceutica Sinica. B, 2023).
# Columns and labels:
# hNET = hNET (Homo sapiens, UniProt P23975); experiment: biochemical; type: binding
# [1] = BBB penetration study in ICR mice; type: in vivo, mouse
# h5-HT1A = h5-HT1A (Homo sapiens, UniProt P08908); experiment: biochemical; type: binding
# hDAT = hDAT (Rattus norvegicus, UniProt P23977); experiment: biochemical; type: binding; conditions: Table 6 selectivity profile
# ICR mice [2] = experiment: MK-801-induced hyperactivity; conditions: 3 mg/kg i.p.
# hD4 = hD4 (Homo sapiens, UniProt P21917); experiment: biochemical; type: binding
# hH1 = hH1 (Cavia porcellus, UniProt P31389); experiment: biochemical; type: binding, guinea pig
# mice [3] = experiment: Catalepsy test in mice; type: in vivo, mouse; conditions: for Catalepsy peak effect (percent of cataleptic animals) / catalepsy under all tested doses: i.p.; for catalepsy under all tested doses: 23j up to 240 mg/kg, 36a/b/f up to 480 mg/kg
# ICR mice [4] = experiment: Apomorphine-induced climbing; type: in vivo, mouse; conditions: i.p., apomorphine 1.0 mg/kg s.c.
# hERG channel = hERG channel (Homo sapiens, UniProt Q12809); experiment: hERG channel automated patch clamp; type: cell-based
# ICR mice [5] = experiment: Spontaneous locomotor test; conditions: compounds 30 mg/kg i.p., RPD 1 mg/kg, 15 min
# hD3R [6] = molecular target: T1, hD3R (Homo sapiens, UniProt P35462); experiment: biochemical; type: binding; conditions: for inhibition at 10 µM: read-out: % inhibition at 10 μmol/L hD3, 10 μmol/L test compound
# hα1 = type: binding, rat; conditions: read-out: Ki hα1; Table 6 selectivity profile
# mice [7] = experiment: Serum prolactin after repeated oral dosing; type: in vivo, mouse; conditions: after 30 days p.o. dosing, 23j, 36b 30 mg/kg, RPD 1 mg/kg
# hD2R [8] = molecular target: T2, hD2R (Homo sapiens, UniProt P14416); experiment: biochemical; type: binding; conditions: for inhibition at 10 µM: read-out: % inhibition at 10 μmol/L hD2
# h5-HT1B = h5-HT1B (Homo sapiens, UniProt P28222); experiment: biochemical; type: binding
# hD5 = hD5 (Homo sapiens, UniProt P21918); experiment: biochemical; type: binding
# h5-HT2A = h5-HT2A (Homo sapiens, UniProt P28223); experiment: biochemical; type: binding
# hSERT = hSERT (Homo sapiens, UniProt P31645); experiment: biochemical; type: binding
# [9] = Weight gain on repeated oral dosing; type: in vivo, mouse; conditions: mice, p.o. once daily 30 days; 23j, 36b 30 mg/kg; RPD 1 mg/kg
# h5-HT6 = h5-HT6 (Homo sapiens, UniProt P50406); experiment: biochemical; type: binding
# PC12 cells = experiment: CCK8 cytotoxicity test, PC12; type: cell-based; conditions: 24 h
# [10] = Pharmacokinetics study in ICR mice; type: in vivo, mouse; conditions: for half-life: t1/2, ICR mice
# h5-HT2C = h5-HT2C (Rattus norvegicus, UniProt P08909); experiment: biochemical; type: binding; conditions: Table 6 selectivity profile
# hD1 = hD1 (Homo sapiens, UniProt P21728); experiment: biochemical; type: binding
# hD2R [11] = molecular target: T2, hD2R; type: cell-based
# mice [12] = experiment: Acute toxicity assay in mice; type: in vivo, mouse; conditions: i.p., up to 600 mg/kg
# hD3R [13] = molecular target: T1, hD3R; experiment: ERK1/2 phosphorylation; type: cell-based; conditions: for effect on ERK1/2 phosphorylation mediated by hD3R, compound alone (agonist mode): CHO-hD3R cells, quinpirole at 20 μmol/L; for competitive antagonism of ERK1/2 phosphorylation mediated by D3R: in the presence of 20 μmol/L dopamine
# HEK293T cells = experiment: CCK8 cytotoxicity test, HEK293T; type: cell-based; conditions: 24 h, CCK8, compared with RPD
# BV2 cells = experiment: CCK8 cytotoxicity test, BV2; type: cell-based; conditions: 24 h, CCK8, compared with RPD
# ICR mice [14] = experiment: Tail suspension test; type: in vivo, mouse; conditions: 36b 3, 10, 30 mg/kg, DLX 15 mg/kg
# ICR mice [15] = experiment: Forced swimming test; type: in vivo, mouse; conditions: 36b 3, 10, 30 mg/kg, DLX 15 mg/kg
# [16] = hERG inhibition IC50, patch clamp, tested three times
# [17] = Ki hD3, three experiments, means ± SEM
# [18] = ICR, mouse, plasma, iv, 3 mg/kg
# [19] = ICR, mouse, plasma, po, 10 mg/kg
# T2 sequence (P14416 whole entry): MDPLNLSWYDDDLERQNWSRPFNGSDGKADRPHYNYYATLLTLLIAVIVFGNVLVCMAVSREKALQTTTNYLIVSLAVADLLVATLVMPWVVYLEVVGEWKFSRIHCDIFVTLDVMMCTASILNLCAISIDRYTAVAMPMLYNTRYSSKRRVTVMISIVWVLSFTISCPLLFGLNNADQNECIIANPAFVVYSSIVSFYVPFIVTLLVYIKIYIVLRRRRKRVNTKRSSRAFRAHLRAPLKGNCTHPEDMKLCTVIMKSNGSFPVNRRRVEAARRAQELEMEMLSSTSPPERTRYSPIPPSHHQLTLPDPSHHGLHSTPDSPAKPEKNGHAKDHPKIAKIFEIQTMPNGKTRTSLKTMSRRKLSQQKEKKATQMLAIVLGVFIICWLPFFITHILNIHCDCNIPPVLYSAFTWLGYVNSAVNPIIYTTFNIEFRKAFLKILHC
# Chain of hERG channel (Q12809 whole entry): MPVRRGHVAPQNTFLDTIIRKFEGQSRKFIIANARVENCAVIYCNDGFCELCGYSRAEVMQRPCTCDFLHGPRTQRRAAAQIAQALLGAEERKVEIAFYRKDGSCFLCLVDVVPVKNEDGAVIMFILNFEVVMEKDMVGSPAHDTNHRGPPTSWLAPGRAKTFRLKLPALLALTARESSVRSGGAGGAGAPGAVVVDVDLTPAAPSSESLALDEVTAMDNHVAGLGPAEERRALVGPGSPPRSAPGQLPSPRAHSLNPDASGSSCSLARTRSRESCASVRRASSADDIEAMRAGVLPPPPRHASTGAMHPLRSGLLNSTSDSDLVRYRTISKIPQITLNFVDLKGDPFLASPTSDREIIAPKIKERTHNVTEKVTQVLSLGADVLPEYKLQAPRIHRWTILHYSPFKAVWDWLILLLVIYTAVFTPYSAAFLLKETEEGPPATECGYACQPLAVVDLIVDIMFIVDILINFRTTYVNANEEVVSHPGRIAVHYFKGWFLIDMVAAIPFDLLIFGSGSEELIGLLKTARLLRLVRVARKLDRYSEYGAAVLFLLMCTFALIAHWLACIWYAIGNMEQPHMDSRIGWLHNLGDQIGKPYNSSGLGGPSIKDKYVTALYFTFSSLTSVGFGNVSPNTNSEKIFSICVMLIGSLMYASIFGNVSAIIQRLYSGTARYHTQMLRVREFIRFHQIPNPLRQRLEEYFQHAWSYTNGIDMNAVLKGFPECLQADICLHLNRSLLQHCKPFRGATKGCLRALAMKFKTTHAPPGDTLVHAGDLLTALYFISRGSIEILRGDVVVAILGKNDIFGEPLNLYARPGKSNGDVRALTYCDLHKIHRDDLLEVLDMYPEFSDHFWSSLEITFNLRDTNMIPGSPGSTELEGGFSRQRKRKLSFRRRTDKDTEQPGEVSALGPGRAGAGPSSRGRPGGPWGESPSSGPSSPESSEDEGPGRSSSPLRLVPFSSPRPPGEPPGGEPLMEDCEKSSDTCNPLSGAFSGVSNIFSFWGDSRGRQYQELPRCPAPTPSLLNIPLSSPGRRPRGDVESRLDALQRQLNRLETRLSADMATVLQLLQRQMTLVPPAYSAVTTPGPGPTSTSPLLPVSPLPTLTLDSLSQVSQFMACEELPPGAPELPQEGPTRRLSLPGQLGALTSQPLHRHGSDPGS
# T1 sequence (P35462 whole entry): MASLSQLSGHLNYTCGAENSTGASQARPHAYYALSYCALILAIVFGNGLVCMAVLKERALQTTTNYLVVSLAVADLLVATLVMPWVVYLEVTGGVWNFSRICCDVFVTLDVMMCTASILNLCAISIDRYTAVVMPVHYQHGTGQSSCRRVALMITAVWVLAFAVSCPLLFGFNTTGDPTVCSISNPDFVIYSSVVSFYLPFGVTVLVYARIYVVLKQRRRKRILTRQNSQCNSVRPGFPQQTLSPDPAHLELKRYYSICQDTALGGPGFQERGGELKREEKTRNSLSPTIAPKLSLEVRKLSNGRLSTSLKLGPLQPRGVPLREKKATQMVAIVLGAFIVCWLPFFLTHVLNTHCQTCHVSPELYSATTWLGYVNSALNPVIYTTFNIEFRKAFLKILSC
# Chain of h5-HT1A (P08908 whole entry): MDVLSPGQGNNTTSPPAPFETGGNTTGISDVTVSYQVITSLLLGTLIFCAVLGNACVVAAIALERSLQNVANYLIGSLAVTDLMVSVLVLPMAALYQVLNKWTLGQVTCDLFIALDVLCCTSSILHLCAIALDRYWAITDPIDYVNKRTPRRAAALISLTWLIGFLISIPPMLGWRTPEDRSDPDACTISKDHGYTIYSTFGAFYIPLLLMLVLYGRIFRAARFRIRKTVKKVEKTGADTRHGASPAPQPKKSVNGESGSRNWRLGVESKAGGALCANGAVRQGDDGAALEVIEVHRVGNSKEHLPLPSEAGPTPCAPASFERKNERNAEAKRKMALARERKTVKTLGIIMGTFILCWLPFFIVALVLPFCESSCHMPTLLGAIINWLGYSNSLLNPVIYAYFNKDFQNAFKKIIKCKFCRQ
# Chain of h5-HT2C (P08909 33-460): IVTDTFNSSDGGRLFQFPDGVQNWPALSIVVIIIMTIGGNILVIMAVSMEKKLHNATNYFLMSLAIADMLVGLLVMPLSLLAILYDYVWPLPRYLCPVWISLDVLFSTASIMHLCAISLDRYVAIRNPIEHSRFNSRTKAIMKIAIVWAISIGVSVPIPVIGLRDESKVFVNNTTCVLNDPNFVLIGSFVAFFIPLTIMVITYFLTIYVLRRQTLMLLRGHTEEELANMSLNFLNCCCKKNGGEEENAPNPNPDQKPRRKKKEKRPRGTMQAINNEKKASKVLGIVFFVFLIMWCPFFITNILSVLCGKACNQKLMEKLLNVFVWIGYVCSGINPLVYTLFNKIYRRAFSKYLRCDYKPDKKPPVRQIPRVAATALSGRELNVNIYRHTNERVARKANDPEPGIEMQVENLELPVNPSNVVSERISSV
# Chain of h5-HT6 (P50406 whole entry): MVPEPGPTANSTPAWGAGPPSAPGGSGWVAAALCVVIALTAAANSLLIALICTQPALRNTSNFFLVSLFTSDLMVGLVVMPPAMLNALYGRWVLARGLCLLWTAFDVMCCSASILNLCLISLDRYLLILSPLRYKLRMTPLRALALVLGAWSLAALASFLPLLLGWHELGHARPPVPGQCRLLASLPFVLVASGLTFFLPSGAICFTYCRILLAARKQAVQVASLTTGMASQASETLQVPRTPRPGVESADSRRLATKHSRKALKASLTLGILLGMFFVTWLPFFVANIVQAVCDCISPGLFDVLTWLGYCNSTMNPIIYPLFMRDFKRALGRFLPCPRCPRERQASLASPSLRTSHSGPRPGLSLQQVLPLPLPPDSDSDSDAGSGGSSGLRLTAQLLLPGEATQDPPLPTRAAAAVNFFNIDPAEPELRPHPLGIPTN
# Chain of hH1 (P31389 whole entry): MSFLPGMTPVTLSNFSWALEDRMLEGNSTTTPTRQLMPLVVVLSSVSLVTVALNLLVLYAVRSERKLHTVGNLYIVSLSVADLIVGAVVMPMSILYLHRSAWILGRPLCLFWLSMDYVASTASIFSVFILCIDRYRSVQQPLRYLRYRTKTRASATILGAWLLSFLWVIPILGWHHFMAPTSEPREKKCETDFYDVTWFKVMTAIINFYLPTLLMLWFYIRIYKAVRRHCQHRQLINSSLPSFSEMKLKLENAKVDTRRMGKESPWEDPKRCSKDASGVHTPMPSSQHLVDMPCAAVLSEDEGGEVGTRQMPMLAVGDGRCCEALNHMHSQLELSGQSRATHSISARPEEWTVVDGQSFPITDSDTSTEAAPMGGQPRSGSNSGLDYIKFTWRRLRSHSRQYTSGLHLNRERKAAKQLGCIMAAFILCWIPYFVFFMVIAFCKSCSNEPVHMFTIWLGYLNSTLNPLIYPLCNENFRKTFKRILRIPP
# Chain of h5-HT1B (P28222 whole entry): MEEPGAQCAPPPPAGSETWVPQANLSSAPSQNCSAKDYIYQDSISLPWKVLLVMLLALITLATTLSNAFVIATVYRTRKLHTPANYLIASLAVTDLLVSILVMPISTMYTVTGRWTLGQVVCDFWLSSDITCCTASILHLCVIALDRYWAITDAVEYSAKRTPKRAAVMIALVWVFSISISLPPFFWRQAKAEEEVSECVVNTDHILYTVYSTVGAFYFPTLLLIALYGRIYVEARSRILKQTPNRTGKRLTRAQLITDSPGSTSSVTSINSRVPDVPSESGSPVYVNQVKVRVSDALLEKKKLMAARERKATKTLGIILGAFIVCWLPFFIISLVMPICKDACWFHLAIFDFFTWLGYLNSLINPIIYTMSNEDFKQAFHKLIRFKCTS
# Chain of hDAT (P23977 whole entry): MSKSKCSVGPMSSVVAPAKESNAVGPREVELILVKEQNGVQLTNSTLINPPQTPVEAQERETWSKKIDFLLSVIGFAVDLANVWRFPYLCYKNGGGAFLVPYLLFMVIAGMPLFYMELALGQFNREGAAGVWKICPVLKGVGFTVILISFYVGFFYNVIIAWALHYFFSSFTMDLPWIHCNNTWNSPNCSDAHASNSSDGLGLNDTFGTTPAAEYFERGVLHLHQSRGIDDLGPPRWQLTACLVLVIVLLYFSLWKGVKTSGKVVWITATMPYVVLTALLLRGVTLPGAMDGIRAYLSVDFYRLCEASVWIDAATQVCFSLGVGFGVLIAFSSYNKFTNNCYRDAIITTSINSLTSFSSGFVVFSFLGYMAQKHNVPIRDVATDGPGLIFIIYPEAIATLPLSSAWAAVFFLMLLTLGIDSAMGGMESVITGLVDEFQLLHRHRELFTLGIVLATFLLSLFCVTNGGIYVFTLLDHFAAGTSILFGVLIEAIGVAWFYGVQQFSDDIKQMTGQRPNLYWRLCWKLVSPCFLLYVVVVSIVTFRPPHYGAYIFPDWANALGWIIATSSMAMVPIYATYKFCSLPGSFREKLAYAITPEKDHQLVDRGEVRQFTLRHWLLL
smiles,measurement,setting,value
CCn1c2ccccc2c2cc(CNCCCCNC(=O)c3ccc(-c4cccnc4)cc3)ccc21 [23j],Ki,hNET,> 10 µM
same,Brain/plasma ratio at 2.0 h,"[1]; 3 mg/kg i.v., 3 mg/kg",1.60
same,Brain concentration at 0.5 h,[1]; 10 mg/kg p.o.,too low to test
same,concentration at 0.5 h,"[1]; ICR, mouse, brain, iv, 3 mg/kg, Brain concentration at 0.5 h, 3 mg/kg i.v.",98 ng/mL
same,concentration at 2 h,"[1]; ICR, mouse, brain, iv, 3 mg/kg, Brain concentration at 2.0 h, 3 mg/kg i.v.",11.5 ng/mL
same,Kp at 0.5 h,"[1]; ICR, mouse, brain, iv, 3 mg/kg, Brain/plasma ratio at 0.5 h, 3 mg/kg i.v.",0.55
same,concentration at 0.5 h,"[1]; ICR, mouse, plasma, iv, 3 mg/kg, Plasma concentration at 0.5 h, 3 mg/kg i.v.",180 ng/mL
same,concentration at 2 h,"[1]; ICR, mouse, plasma, iv, 3 mg/kg, Plasma concentration at 2.0 h, 3 mg/kg i.v.",7.17 ng/mL
same,concentration at 0.5 h,"[1]; ICR, mouse, plasma, po, 10 mg/kg, Plasma concentration at 0.5 h, 10 mg/kg p.o.",53.4 ng/mL
same,concentration at 2 h,"[1]; ICR, mouse, plasma, po, 10 mg/kg, Plasma concentration at 2.0 h, 10 mg/kg p.o.",2.89 ng/mL
same,Ki,h5-HT1A,0.579 µM
same,Ki,hDAT,6.1 µM
same,inhibition of MK-801-induced hyperactivity at 3 mg/kg,ICR mice [2],did not show the inhibition activity
same,Ki,hD4,> 10 µM
same,Ki,hH1,5.2 µM
same,Catalepsy MED i.p. (minimum effective dose),mice [3],≥240.0 mg/kg
same,Catalepsy peak effect (percent of cataleptic animals),mice [3],0.0%
same,catalepsy under all tested doses,mice [3],did not elicit catalepsy
same,inhibition of apomorphine-induced climbing,ICR mice [4],dose-dependently inhibit
same,IC50,hERG channel; [16],2.46 µM
same,effect on spontaneous locomotion,ICR mice [5],no influences
same,improvement of D3R binding affinity versus the phenyl group (23g),hD3R [6],approximately 10 fold
same,Ki,"hD3R [6]; Ki hD3, Table 6 selectivity profile",0.0168 µM
same,Ki,hD3R [6]; [17],0.0139 ± 0.0034 µM
same,inhibition at 10 µM,hD3R [6],107.3 ± 0.3%
same,Ki,hα1,8.35 µM
same,serum prolactin level,mice [7],nonsignificant serum prolactin change
same,Ki,hD2R [8],> 10 µM
same,inhibition at 10 µM,hD2R [8],12.4 ± 5.8%
same,Ki,h5-HT1B,0.172 µM
same,Ki,hD5,> 10 µM
same,Ki,h5-HT2A,0.214 µM
same,Ki,hSERT,5.41 µM
same,body weight / weight gain,[9],No influence on body weight
same,Ki,h5-HT6,8.72 µM
same,cytotoxicity in PC12 cells,PC12 cells,significant cytotoxicity at high concentrations
same,t1/2,"[10]; ICR mice, 10 mg/kg p.o., single dose, 10 mg/kg",70.2 min
same,AUC,[10]; [18],326 ng·h/mL
same,Cmax,[10]; [18],567 ng/mL
same,MRT,[10]; [18],28.8 min
same,Tmax,[10]; [18],4.8 min
same,Vd,[10]; [18],4.44 L/kg
same,clearance,[10]; [18],153 mL/min/kg
same,half-life,"[10]; ICR, mouse, plasma, iv, 3 mg/kg, 3 mg/kg i.v., single dose",31.8 min
same,bioavailability,"[10]; ICR, mouse, plasma, oral, 10 mg/kg",8.7%
same,AUC,[10]; [19],94.4 ng·h/mL
same,Cmax,[10]; [19],78.8 ng/mL
same,MRT,[10]; [19],52.2 min
same,Tmax,[10]; [19],10.2 min
same,half-life,"[10]; ICR, mouse, plasma, po, 10 mg/kg, 10 mg/kg p.o., single dose",66 min
same,Ki,h5-HT2C,2.23 µM
same,Ki,hD1,> 10 µM
same,"effect on ERK1/2 phosphorylation mediated by hD2R, compound alone (agonist mode)",hD2R [11],weak partial agonism
same,acute toxicity / tolerance,mice [12],dose-dependent lethal toxicity from 240 to 600 mg/kg
same,"effect on ERK1/2 phosphorylation mediated by hD3R, compound alone (agonist mode)",hD3R [13],no influence
same,competitive antagonism of ERK1/2 phosphorylation mediated by D3R,hD3R [13],dose-dependently inhibit
Cn1c2c(c3ccccc31)CN(CCCCNC(=O)c1ccc(-c3ccccc3)cc1)CC2 [36f],inhibition of MK-801-induced hyperactivity at 3 mg/kg,ICR mice [2],reduced the distance of mice movement
same,Catalepsy MED i.p. (minimum effective dose),mice [3],≥480.0 mg/kg
same,Catalepsy peak effect (percent of cataleptic animals),mice [3],0.0%
same,catalepsy under all tested doses,mice [3],did not elicit catalepsy
same,effect on the viability of HEK293T,HEK293T cells,less effects
same,IC50,"hERG channel; hERG IC50, patch clamp",> 40 µM
same,IC50,hERG channel; [16],46.9 µM
same,effect on spontaneous locomotion,ICR mice [5],no influences
same,Ki,hD3R [6]; [17],0.0041 ± 0.0003 µM
same,inhibition at 10 µM,hD3R [6],104 ± 1.4%
same,Ki,hD2R [8],> 10 µM
same,inhibition at 10 µM,hD2R [8],-20.7 ± 4.9%
same,effect on the viability of BV2,BV2 cells,less effects
same,"effect on ERK1/2 phosphorylation mediated by hD2R, compound alone (agonist mode)",hD2R [11],no functional affects
same,acute toxicity / tolerance,mice [12],well tolerant
same,"effect on ERK1/2 phosphorylation mediated by hD3R, compound alone (agonist mode)",hD3R [13],no influence
same,competitive antagonism of ERK1/2 phosphorylation mediated by D3R,hD3R [13],dose-dependently inhibit
"CNCC[C@H](Oc1cccc2ccccc12)c1cccs1 [DLX, duloxetine, reference compound]",immobility time in the TST,ICR mice [14],robust decrease
same,FST latency,ICR mice [15],failed to prolong
same,immobility time of FST,ICR mice [15],robust decrease
